Test system: SW 1271 complex spheroids, viability
Experiment: Anticancer human tumor SW 1271 cell line growth inhibition [LSD1];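 further: spheroids exposed to agents for 7 days before luminescence read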;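 on viability, T/C: 100% = DMSO vehicle control viability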
Details: for IC50: curve of first compound; for viability, T/C: stronger effect = lower value
Text: Multicellular complex tumor spheroid response to LSD1 Inhibitor Iadademstat in combination with a variety of drugs and investigational agents in selected tumor cell lines
The current study was undertaken to assess response to LSD1 inhibitors in combination with standard-of-care drugs and investigational agents in solid tumor complex spheroid models as well as in the K-562 leukemia. Complex spheroids include a stromal component modeled by human endothelial cells (HUVEC) and fibroblasts modeled by human mesenchymal stem cells (MSCs). The concentration ranges selected for each drug and investigational agent were based upon clinically achievable concentrations if the clinical Cmax of the agent was known.
Compounds. The drugs and investigational agents used in this study are listed on Table 1. All of the agents used, including staurosporine (NSC755774) and gemcitabine (NSC613327), were obtained from the Developmental Therapeutics Program, NCI. FDA-approved anticancer drugs are available from the NCI at http://dtp.nci.nih.gov/branches/dscb/oncology_drugset_explanation.html. Drugs and investigational agents were >95% pure by proton nuclear magnetic resonance (NMR) and liquid chromatography/mass spectrometry (LC/MS). Stock solutions were prepared at 400x in DMSO, stored at -70 degrees C, and diluted in fresh medium prior to their use. The final concentration of DMSO in cell culture wells never exceeded 0.25% (v/v). The FDA-approved anticancer drug set is available from the Developmental Therapeutics Program at https://dtp.cancer.gov/organization/dscb/obtaining/available_plates.htm. All drugs and investigational agents were tested over a range starting from a high concentration at or near the clinical Cmax and decreasing in half-log increments. If the clinical Cmax for an agent had not been determined, the highest concentration tested was 10 microM.
Cell Lines. The patient-derived cancer cell (PDC) lines: 292921-168-R-J2-PDC, K24384-001-R-PDC, and 521955-158-R2-J5-PDC pancreatic carcinomas, 556581-035-R-J1 ovarian carcinoma, 324938-238-R-J1-PDC, 855422-203-R-J1-PDC and 883617-216-R-J1-PDC urothelial bladder carcinomas, 743489-274-T-PDC renal cell carcinoma, 138582-R-J1 Merkel cell tumor, K60290-347-R-J1 and K57222-313-R-J1-PDC glioblastomas, 653999-131-R-J2-PDC, LG0703-F948-PDC, and 349418-098-R-PDC non-small cell lung carcinomas, 885512-296-R-J2-PDC, 171881-019-R-J1-PDC breast carcinomas and 186277-243-T-J2-PDC and 233499-124-R-J2-PDC colon carcinomas were obtained from the NCI Patient-Derived Models Repository (PDMR, https://pdmr.cancer.gov). The established cell lines NCI/ADR-RES (RRID:CVCL_14520 and OVCAR-5 (RRID:CVCL_1628) ovarian carcinomas, 786-O (RRID:CVCL_1051) and A498 (RRID:CVCL_A498) renal cell carcinoma, NCI-H211 (ATCC, cat. CRL-5824; RRID:CVCL_1529), NCI-H196 (ATCC, cat. CRL-5823, RRID:CVCL_1509), SW 1271 (ATCC, cat. CRL-2177, RRID:CVCL_1716) and NCI-H1876 (ATCC, cat. CRL-5902, RRID:CVCL_1503) small cell lung carcinomas, MDA-MB-231 (RRID:CVCL_0062) and MDA-MB-468 (RRID:CVCL_0419)breast carcinomas (10-12). Pooled donor human umbilical vein endothelial cells (HUVEC, Lonza, cat. CC-2519) and human mesenchymal stem cells (hMSC, Lonza, cat. PT-2501) were purchased from Lonza (Walkersville, MD).
Cell Culture. All cells were maintained in an incubator at 37 degrees C and 5% CO2 with 95% humidity. The PDC lines were cultured according to standard operating procedures established by the NCI PDMR (https://pdmr.cancer.gov). Briefly all PDCs were thawed and cultured in Matrigel-coated flasks prepared with a working solution of 1X Ham's F-12 nutrient mix, without supplementation (Invitrogen, Waltham, MA, cat. 11765054), 100 U/mL penicillin-streptomycin (Invitrogen, cat. 15140122), and 2.5% Matrigel (Corning Inc., Corning, NY, cat. 354248) for the first three passages. […]

[1] = second compound 0.1 µM, first compound 0.000949 µM
[2] = second compound 0.1 µM, first compound 0.003 µM
[3] = second compound 0.1 µM, first compound 0.00949 µM
[4] = second compound 0.1 µM, first compound 0.03 µM
[5] = second compound 0.1 µM, first compound 0.0949 µM
[6] = second compound 0.1 µM, first compound 0.3 µM
[7] = second compound 0.316 µM, first compound 0.000949 µM
[8] = second compound 0.316 µM, first compound 0.003 µM
[9] = second compound 0.316 µM, first compound 0.00949 µM
[10] = second compound 0.316 µM, first compound 0.03 µM
[11] = second compound 0.316 µM, first compound 0.0949 µM
[12] = second compound 0.316 µM, first compound 0.3 µM
[13] = second compound 1 µM, first compound 0.000949 µM
[14] = second compound 1 µM, first compound 0.003 µM
[15] = second compound 1 µM, first compound 0.00949 µM
[16] = second compound 1 µM, first compound 0.03 µM
[17] = second compound 1 µM, first compound 0.0949 µM
[18] = second compound 1 µM, first compound 0.3 µM
[19] = second compound 3.16 µM, first compound 0.000949 µM
[20] = second compound 3.16 µM, first compound 0.003 µM
[21] = second compound 3.16 µM, first compound 0.00949 µM
[22] = second compound 3.16 µM, first compound 0.03 µM
[23] = second compound 3.16 µM, first compound 0.0949 µM
[24] = second compound 3.16 µM, first compound 0.3 µM
[25] = second compound 10 µM, first compound 0.000949 µM
[26] = second compound 10 µM, first compound 0.003 µM
[27] = second compound 10 µM, first compound 0.00949 µM
[28] = second compound 10 µM, first compound 0.03 µM
[29] = second compound 10 µM, first compound 0.0949 µM
[30] = second compound 10 µM, first compound 0.3 µM

CCc1c2c(nc3ccc(O)cc13)-c1cc3c(c(=O)n1C2)COC(=O)[C@]3(O)CC + NC1CC1c1ccc(-c2cccc(O)c2)cc1
IC50 (second compound 0.1 µM): < 0.949 nM
IC50 (second compound 0.316 µM): 1.07 nM
IC50 (second compound 1 µM): < 0.949 nM
IC50 (second compound 3.16 µM): < 0.949 nM
IC50 (second compound 10 µM): 2.83 nM
viability, T/C [1]: 48.1%
viability, T/C [2]: 46%
viability, T/C [3]: 26.5%
viability, T/C [4]: 8.18%
viability, T/C [5]: 8.27%
viability, T/C [6]: 3.92%
viability, T/C [7]: 50.5%
viability, T/C [8]: 45.4%
viability, T/C [9]: 25.9%
viability, T/C [10]: 10.3%
viability, T/C [11]: 8.68%
viability, T/C [12]: 6.46%
viability, T/C [13]: 49.4%
viability, T/C [14]: 43%
viability, T/C [15]: 27.4%
viability, T/C [16]: 9.38%
viability, T/C [17]: 5.98%
viability, T/C [18]: 3.79%
viability, T/C [19]: 48.2%
viability, T/C [20]: 50.2%
viability, T/C [21]: 26.7%
viability, T/C [22]: 9.15%
viability, T/C [23]: 5.19%
viability, T/C [24]: 5.82%
viability, T/C [25]: 56.6%
viability, T/C [26]: 48.5%
viability, T/C [27]: 30.1%
viability, T/C [28]: 9.23%
viability, T/C [29]: 7.28%
viability, T/C [30]: 5.03%

Nc1ccn(C2OC(CO)C(O)C2(F)F)c(=O)n1 (stereo not given) + NC1CC1c1ccc(-c2cccc(O)c2)cc1
IC50 (second compound 0.1 µM): > 300 nM
IC50 (second compound 0.316 µM): > 300 nM
IC50 (second compound 1 µM): > 300 nM
IC50 (second compound 3.16 µM): > 300 nM
IC50 (second compound 10 µM): > 300 nM
viability, T/C [1]: 76.7%
viability, T/C [2]: 68.7%
viability, T/C [3]: 63.3%
viability, T/C [4]: 54%
viability, T/C [5]: 64.9%
viability, T/C [6]: 58%
viability, T/C [7]: 65.9%
viability, T/C [8]: 54.7%
viability, T/C [9]: 55.7%
viability, T/C [10]: 57.4%
viability, T/C [11]: 54.3%
viability, T/C [12]: 64.2%
viability, T/C [13]: 62.1%
viability, T/C [14]: 64.2%
viability, T/C [15]: 57.5%
viability, T/C [16]: 55.5%
viability, T/C [17]: 58.5%
viability, T/C [18]: 61.3%
viability, T/C [19]: 65.3%
viability, T/C [20]: 58.3%
viability, T/C [21]: 51.4%
viability, T/C [22]: 52%
viability, T/C [23]: 56.2%
viability, T/C [24]: 47.3%
viability, T/C [25]: 62.1%
viability, T/C [26]: 57.7%
viability, T/C [27]: 51.1%
viability, T/C [28]: 60.1%
viability, T/C [29]: 48.5%
viability, T/C [30]: 51.2%

O=C(c1cc(Cc2n[nH]c(=O)c3ccccc23)ccc1F)N1CCN(C(=O)C2CC2)CC1 + NC1CC1c1ccc(-c2cccc(O)c2)cc1
IC50 (second compound 0.1 µM): 8950 nM
IC50 (second compound 0.316 µM): 5660 nM
IC50 (second compound 1 µM): 6290 nM
IC50 (second compound 3.16 µM): 3740 nM
IC50 (second compound 10 µM): > 10000 nM
viability, T/C (second compound 0.1 µM, first compound 0.0316 µM): 78.1%
viability, T/C (second compound 0.1 µM, first compound 0.1 µM): 87%
viability, T/C (second compound 0.1 µM, first compound 0.316 µM): 92.7%
viability, T/C (second compound 0.1 µM, first compound 1 µM): 72.9%
viability, T/C (second compound 0.1 µM, first compound 3.16 µM): 61.4%
viability, T/C (second compound 0.1 µM, first compound 10 µM): 48.2%
viability, T/C (second compound 0.316 µM, first compound 0.0316 µM): 84.5%
viability, T/C (second compound 0.316 µM, first compound 0.1 µM): 76.1%
viability, T/C (second compound 0.316 µM, first compound 0.316 µM): 78%
viability, T/C (second compound 0.316 µM, first compound 1 µM): 67.5%
viability, T/C (second compound 0.316 µM, first compound 3.16 µM): 54.9%
viability, T/C (second compound 0.316 µM, first compound 10 µM): 44.1%
viability, T/C (second compound 1 µM, first compound 0.0316 µM): 81.4%
viability, T/C (second compound 1 µM, first compound 0.1 µM): 74.4%
viability, T/C (second compound 1 µM, first compound 0.316 µM): 70%
viability, T/C (second compound 1 µM, first compound 1 µM): 65.1%
viability, T/C (second compound 1 µM, first compound 3.16 µM): 56.8%
viability, T/C (second compound 1 µM, first compound 10 µM): 45.4%
viability, T/C (second compound 3.16 µM, first compound 0.0316 µM): 72.1%
viability, T/C (second compound 3.16 µM, first compound 0.1 µM): 63.4%
viability, T/C (second compound 3.16 µM, first compound 0.316 µM): 68.3%
viability, T/C (second compound 3.16 µM, first compound 1 µM): 58.4%
viability, T/C (second compound 3.16 µM, first compound 3.16 µM): 52.9%
viability, T/C (second compound 3.16 µM, first compound 10 µM): 38.9%
viability, T/C (second compound 10 µM, first compound 0.0316 µM): 66.9%
viability, T/C (second compound 10 µM, first compound 0.1 µM): 66.8%
viability, T/C (second compound 10 µM, first compound 0.316 µM): 63%
viability, T/C (second compound 10 µM, first compound 1 µM): 57.9%
viability, T/C (second compound 10 µM, first compound 3.16 µM): 52.7%
viability, T/C (second compound 10 µM, first compound 10 µM): 51.3%
